Measured values reported in patent publication US20250019387A1 (Frontier Medicines Corporation, priority 0001, published 2025).

molecular target: KRAS G12C and cRAF (Ras-binding domain) interaction (Homo sapiens (Human), UniProt P01116, C118S/C51S/C80L/G12C); assay: Inhibition of KRAS G12C and cRAF binding (AlphaScreen); settings: GMPPNP-loaded KRAS G12C, 19-20 hours incubation with compound; read-out: IC50 (Inhibition of KRAS G12C and cRAF Binding)
How it was run: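 Compounds (DMSO) preincubated 19-20 h at room temperature, then RBD with streptavidin donor and glutathione acceptor beads added in 25 mM Hepes pH 7.4, 150 mM NaCl, 5 mM MgCl2, 0.01% Triton X-100, 2% DMSO for 60-90 min. Emission 570 nm (excitation 680 nm); IC50 by 4-parameter fit. Counter-screen used biotin-AviTag-GST instead of RBD.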

Chain of KRAS G12C and cRAF (Ras-binding domain) interaction (P01116 other isoform, or with tags, fused parts or gaps G12C/C51S/C80L/C118S): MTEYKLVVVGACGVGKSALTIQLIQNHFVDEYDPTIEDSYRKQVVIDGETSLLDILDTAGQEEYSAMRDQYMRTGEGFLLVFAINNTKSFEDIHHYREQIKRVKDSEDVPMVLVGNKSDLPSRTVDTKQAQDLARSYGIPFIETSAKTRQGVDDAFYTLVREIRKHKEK

Row | SMILES | IC50
1 | CN(c1nc(OC[C@@]23CCCN2C[C@H](F)C3)nc2c(F)c(-c3cccc4cccc(Cl)c34)ncc12)[C@@H]1CCN(C(=O)C#C[C@@]2(C)CCCN2C)C1 [Example 197, 1-((R)-3-((7-(8-chloronaphthalen-1-yl)-8-fluoro-2-(((2R,7aS)-2-fluorohexahydro-1H-pyrrolizin-7a-yl)methoxy)pyrido[4,3-d]pyrimidin-4-yl)(methyl)amino)pyrrolidin-1-yl)-3-((R)-1,2-dimethylpyrrolidin-2-yl)prop-2-yn-1-one] | 10 to 100 nM
2 | Cc1nccc(/C=C/C(=O)N2CCC[C@@H](N(C)c3nc(OC[C@@]45CCCN4C[C@H](F)C5)nc4c(F)c(-c5cccc6cccc(Cl)c56)ncc34)C2)n1 [Example 198, (E)-1-((R)-3-((7-(8-chloronaphthalen-1-yl)-8-fluoro-2-(((2R,7aS)-2-fluorotetrahydro-1H-pyrrolizin-7a(5H)-yl)methoxy)pyrido[4,3-d]pyrimidin-4-yl)(methyl)amino)piperidin-1-yl)-3-(2-methylpyrimidin-4-yl)prop-2-en-1-one] | > 500 nM
3 | CN1CC[C@@H]1/C=C/C(=O)N1C[C@H](F)[C@@H](N(C)c2nc(OC[C@@]34CCCN3C[C@H](F)C4)nc3c(F)c(-c4cccc5ccc(F)c(F)c45)ncc23)C1 [Example 199, (E)-1-((3S,4S)-3-((7-(7,8-difluoronaphthalen-1-yl)-8-fluoro-2-(((2R,7aS)-2-fluorotetrahydro-1H-pyrrolizin-7a(5H)-yl)methoxy)pyrido[4,3-d]pyrimidin-4-yl)(methyl)amino)-4-fluoropyrrolidin-1-yl)-3-((R)-1-methylazetidin-2-yl)prop-2-en-1-one] | < 10 nM
4 | C#Cc1c(F)ccc2cccc(-c3ncc4c(N(C)[C@@H]5CCN(C(=O)/C=C/[C@H]6CCN6C)C5)nc(OC[C@@]56CCCN5C[C@H](F)C6)nc4c3F)c12 [Example 200, (E)-1-((R)-3-((7-(8-ethynyl-7-fluoronaphthalen-1-yl)-8-fluoro-2-(((2R,7aS)-2-fluorohexahydro-1H-pyrrolizin-7a-yl)methoxy)pyrido[4,3-d]pyrimidin-4-yl)(methyl)amino)pyrrolidin-1-yl)-3-((R)-1-methylazetidin-2-yl)prop-2-en-1-one] | < 10 nM
5 | C#Cc1c(F)ccc2cccc(-c3ncc4c(N(C)[C@@H]5CCN(C(=O)/C=C/CN(C)C)C5)nc(OC[C@@]56CCCN5C[C@H](F)C6)nc4c3F)c12 [Example 201, (E)-4-(dimethylamino)-1-((R)-3-((7-(8-ethynyl-7-fluoronaphthalen-1-yl)-8-fluoro-2-(((2R,7aS)-2-fluorohexahydro-1H-pyrrolizin-7a-yl)methoxy)pyrido[4,3-d]pyrimidin-4-yl)(methyl)amino)pyrrolidin-1-yl)but-2-en-1-one] | < 10 nM
6 | Cc1c(F)ccc2cccc(-c3ncc4c(N(C)[C@@H]5CCN(C(=O)/C=C/CN(C)C)C5)nc(OC[C@@]56CCCN5C[C@H](F)C6)nc4c3F)c12 [Example 202, (E)-4-(dimethylamino)-1-((R)-3-((8-fluoro-7-(7-fluoro-8-methylnaphthalen-1-yl)-2-(((2R,7aS)-2-fluorotetrahydro-1H-pyrrolizin-7a(5H)-yl)methoxy)pyrido[4,3-d]pyrimidin-4-yl)(methyl)amino)pyrrolidin-1-yl)but-2-en-1-one] | 10 to 100 nM
7 | Cc1cc(/C=C/C(=O)N2CC[C@@H](N(C)c3nc(OC[C@@]45CCCN4C[C@H](F)C5)nc4c(F)c(-c5cccc6ccc(F)c(F)c56)ncc34)C2)nc(C)n1 [Example 203, (E)-1-((R)-3-((7-(7,8-difluoronaphthalen-1-yl)-8-fluoro-2-(((2R,7aS)-2-fluorohexahydro-1H-pyrrolizin-7a-yl)methoxy)pyrido[4,3-d]pyrimidin-4-yl)(methyl)amino)pyrrolidin-1-yl)-3-(2,6-dimethylpyrimidin-4-yl)prop-2-en-1-one] | 10 to 100 nM
